Test results taken from BindingDB's records for doi:10.1124/jpet.104.073668 (Temple University, 2005).

Legend:
[1] = biological target: Kappa-type opioid receptor (Homo sapiens, UniProt P41145)
Mu-type opioid receptor = Mu-type opioid receptor (Rattus norvegicus, UniProt P33535)
Mu-type opioid receptor, sequence (P33535 whole entry): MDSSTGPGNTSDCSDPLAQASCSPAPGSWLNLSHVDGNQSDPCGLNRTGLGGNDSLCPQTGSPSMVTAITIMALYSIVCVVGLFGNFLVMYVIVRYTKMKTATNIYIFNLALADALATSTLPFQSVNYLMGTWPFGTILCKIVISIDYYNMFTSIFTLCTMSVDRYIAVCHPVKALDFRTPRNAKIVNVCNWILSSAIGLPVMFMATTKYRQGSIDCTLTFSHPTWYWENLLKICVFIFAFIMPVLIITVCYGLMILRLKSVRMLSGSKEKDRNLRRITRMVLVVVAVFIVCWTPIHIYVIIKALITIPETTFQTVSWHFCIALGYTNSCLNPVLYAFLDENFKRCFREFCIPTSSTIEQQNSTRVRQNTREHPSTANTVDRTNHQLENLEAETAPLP

Kappa-type opioid receptor, sequence (P41145 whole entry): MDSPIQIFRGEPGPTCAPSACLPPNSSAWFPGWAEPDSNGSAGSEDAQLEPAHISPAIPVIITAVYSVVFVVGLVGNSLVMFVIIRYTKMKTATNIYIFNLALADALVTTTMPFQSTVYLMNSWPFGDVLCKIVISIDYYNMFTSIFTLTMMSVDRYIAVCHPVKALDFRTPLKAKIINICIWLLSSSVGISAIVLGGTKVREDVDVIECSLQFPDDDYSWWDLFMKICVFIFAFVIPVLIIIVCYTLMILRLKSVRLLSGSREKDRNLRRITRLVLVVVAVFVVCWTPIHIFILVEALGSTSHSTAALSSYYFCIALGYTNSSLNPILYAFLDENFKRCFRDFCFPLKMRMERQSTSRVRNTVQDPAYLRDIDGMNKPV

| SMILES | Ki [1] [nM] | Ki (Mu-type opioid receptor) [nM] |
| --- | --- | --- |
| COC(=O)C12CN(C)CC(C(=O)OC)(C1=O)C(c1cccc(F)c1)N(C)C2c1cccc(F)c1 (configuration not stated) | 248 |  |
| CN(C(=O)C=Cc1ccoc1)C1CCC2(O)C3Cc4ccc(O)c5c4C2(CCN3CC2CC2)C1O5 (configuration not stated) [CAS_213055] |  | 5.2 |
